# Reference: patent US20100121049A1, “INDENOISOQUINOLINONE ANALOGS AND METHODS OF USE THEREOF” (INOTEK PHARMACEUTICALS CORPORATION, priority 2007, published 2010)
# Biological target: T1, PARP (Mus musculus, UniProt P11103)
# T1 construct: PARP Activity in Cultured Macrophages, Using a Whole-Cell Based Assay; host or cells: murine RAW macrophages
# Test: PARP activity in cultured macrophages, whole-cell based assay (3H-NAD+ incorporation after hydrogen peroxide)
# Details: murine RAW macrophages; compound 1 hour prior to hydrogen peroxide (0.5 mM) for 25 minutes; PARP activity by 3H-NAD+
# Experimental: Effect of Indenoisoquinolinone Analogs on PARP Activity in Cultured Macrophages, Using a Whole-Cell Based Assay
# The murine RAW macrophages (ATCC, American Type Culture Collection, Manassas, Va.) were grown in RPMI […] (Invitrogen Life Technologies; Carlsbad, Calif.) medium supplemented with 10% heat-inactivated FBS, 2 mM L-glutamine, and 100 U/ml of penicillin and streptomycin. Cells, between passages 5 and 15, were seeded at a density of 250,000 cells/well in 12 well plates and allowed to grow 48 hours before use. Growth medium was changed on the day of use. Cells were treated with an Indenoisoquinolinone Analog diluted in a growth medium supplemented with 10% fetal bovine serum (FBS) for 1 hour prior to the addition of hydrogen peroxide (0.5 mM) for a further 25 minutes. For the measurement of PARP activity, media was removed and replaced with 0.5 ml of the assay buffer (56 mM HEPES-pH 7.5, 28 mM KCl, 28 mM NaCl, 2 mM MgCl2, 0.01% digitonin, and 0.5 μCi/m1 of ^3H-NAD^+) for 20 minutes. After aspirating the assay buffer, cells were lysed and transferred to eppendorf tubes containing 250 μl of 50% ice-cold trichloroacetic acid (TCA), which were then placed at 4° C. for 4 hours. Samples were centrifuged at 10,000 g for 10 minutes and supernatant removed. The pellets were washed twice with 500 μl of ice-cold 5% w/v TCA. The pellets were then solubilized in 250 μl of NaOH (0.1 M) containing 2% SDS overnight at 37° C. and the PARP activity was then determined by measuring the radioactivity incorporated using a Wallac scintillation counter. The solubilized protein (250 μl) was mixed with 5 ml of scintillation fluid (ScintiSafe Plus, Fisher Scientific) before being counted for 3 minutes. EC50 values were determined from a dose-response curve.
# T1 sequence (P11103 whole entry): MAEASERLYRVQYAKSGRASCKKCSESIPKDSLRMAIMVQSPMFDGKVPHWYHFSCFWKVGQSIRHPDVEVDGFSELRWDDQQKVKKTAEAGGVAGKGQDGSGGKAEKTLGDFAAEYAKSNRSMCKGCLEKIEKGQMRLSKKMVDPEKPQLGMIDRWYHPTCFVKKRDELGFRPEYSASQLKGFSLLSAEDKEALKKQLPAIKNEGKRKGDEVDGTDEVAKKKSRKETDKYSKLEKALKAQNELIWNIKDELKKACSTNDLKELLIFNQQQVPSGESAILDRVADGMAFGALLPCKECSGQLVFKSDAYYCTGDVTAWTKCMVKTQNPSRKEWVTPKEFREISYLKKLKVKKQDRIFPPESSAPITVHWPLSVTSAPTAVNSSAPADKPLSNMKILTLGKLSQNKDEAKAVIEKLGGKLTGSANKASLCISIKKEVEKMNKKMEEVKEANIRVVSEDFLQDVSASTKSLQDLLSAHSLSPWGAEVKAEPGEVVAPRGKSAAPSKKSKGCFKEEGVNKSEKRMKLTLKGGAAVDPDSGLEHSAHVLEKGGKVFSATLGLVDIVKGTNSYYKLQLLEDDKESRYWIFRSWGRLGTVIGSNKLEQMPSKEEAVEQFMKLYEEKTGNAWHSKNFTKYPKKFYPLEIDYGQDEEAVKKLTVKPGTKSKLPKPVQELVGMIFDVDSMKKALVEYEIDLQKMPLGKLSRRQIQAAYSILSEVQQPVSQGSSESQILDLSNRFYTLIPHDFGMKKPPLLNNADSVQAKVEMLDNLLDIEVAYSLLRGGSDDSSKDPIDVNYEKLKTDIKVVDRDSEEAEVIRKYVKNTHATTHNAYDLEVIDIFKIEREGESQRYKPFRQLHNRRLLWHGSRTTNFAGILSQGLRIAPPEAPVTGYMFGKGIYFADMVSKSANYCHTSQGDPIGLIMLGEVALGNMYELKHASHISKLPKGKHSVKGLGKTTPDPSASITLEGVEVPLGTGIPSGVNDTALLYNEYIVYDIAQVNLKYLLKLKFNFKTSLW
row,EC50,SMILES
1,9 nM,"O=c1[nH]c2c(c3ccc(F)cc13)Cc1c(CNC3CCCC3)cccc1-2 [Va-3, 10-((cyclopentylamino)methyl)-3-fluoro-6,11-dihydro-5H-indeno[1,2-c]isoquinolin-5-one]"
2,4 nM,"O=c1[nH]c2c(c3cccc(F)c13)Cc1c(CNC3CCCC3)cccc1-2 [Va-4, 10-((cyclopentylamino)methyl)-4-fluoro-6,11-dihydro-5H-indeno[1,2-c]isoquinolin-5-one]"
3,3 nM,"O=c1[nH]c2c(c3ccccc13)Cc1c(CNC3(CO)CCCC3)cc(F)cc1-2 [Va-9, 8-fluoro-10-((1-(hydroxymethyl)cyclopentylamino)methyl)-6,11-dihydro-5H-indeno[1,2-c]isoquinolin-5-one]"

# Further lines, the compound ahead of its results:
row,SMILES,EC50
1,"O=c1[nH]c2c(c3ccc(F)cc13)Cc1c(CNC3CCOCC3)cccc1-2 [Va-5, 3-fluoro-10-((tetrahydro-2H-pyran-4-ylamino)methyl)-6,11-dihydro-5H-indeno[1,2-c]isoquinolin-5-one]",5 nM
2,"O=c1[nH]c2c(c3c(F)cccc13)Cc1c(CNC3CCCC3)cccc1-2 [Va-7, 10-((cyclopentylamino)methyl)-1-fluoro-6,11-dihydro-5H-indeno[1,2-c]isoquinolin-5-one]",5 nM
3,"O=c1[nH]c2c(c3ccc(F)cc13)Cc1c(CNC3(CO)CCCC3)cc(F)cc1-2 [Va-10, 3,8-difluoro-10-((1-(hydroxymethyl)cyclopentylamino)methyl)-6,11-dihydro-5H-indeno[1,2-c]isoquinolin-5-one]",3 nM
